The record followed here is patent publication EP4555995B1, “COSMETIC USE OF A CYCLOPROPENE FATTY ACID FOR INHIBITING SCD ACTIVITY” (Laboratoires d'Anjou, priority 2023, dated 2025).

Where “and” joins values, the source holds several entries; their conditions need not be identical. Equal values may be shown once. Where only a bound is given, the exact number is not on record here.

Series [1] deals with cellules de mélanome murin B16 stimulées par le NDP-MSH. Briefly: Melanin synthesis in B16 melanoma cells stimulated by NDP-MSH (total melanin content, absorbance at 405 nm). It counts as cell-based. The note with it: for Teneur en mélanine: NDP-MSH 0,1 µM, 72 h, percent of stimulated control, individual replicates. From the text:
Dans la présente étude, l'effet blanchissant potentiel de l'acide sterculique a été évalué sur la synthèse de mélanine dans les cellules de mélanome murin B16 stimulées par un analogue stable de l'α-MSH, le NDP-MSH ([Nle4, D-Phe7]-α-Melanocyte Stimulating Hormone).
Le modèle de mélanocyte B16 constitue un modèle approprié pour la recherche d'effets inhibiteurs sur la production de mélanine car il est très réactif (par exemple à une stimulation NDP-MSH), ce qui entraîne une forte modulation de la production de mélanine entre les conditions basales et les conditions stimulées. Cette forte production de mélanine dans des conditions stimulées permet d'identifier les composés présentant des propriétés blanchissantes.
(§1) • Modèle biologique : • Type cellulaire : Lignée cellulaire de mélanome murin B16 (= mélanocytes B16) • Conditions de culture : 37°C, 5% CO2 • Milieu de culture : DMEM sans rouge de phénol optimisé pour l'essai, complété par du sérum de veau fœtal à 10%. • Composé testé : acide sterculique 50, 100 et 200 µM (dans 0.066% ethanol) • Essai préliminaire de cytotoxicité • Type de cellule : Cellules de mélanome murin B16 en milieu de culture • Durée d'incubation : 72 heures • Paramètres d'évaluation : Essai de réduction WST-8 et observations morphologiques à l'aide d'un microscope. Après traitement, les cellules sont incubées avec du WST-8 (sel de tétrazolium très soluble dans l'eau) réduit en un produit soluble dans l'eau de couleur orange (formazan) par la succinate déshydrogé-nase (enzyme mitochondriale). Cette transformation est proportionnelle au nombre de cellules vivantes et à leur activité métabolique. La densité optique (DO) des extraits à 450 nm a été enregistrée avec un spectromètre (VERSAmax, Molecular Devices). • Culture et traitement
Des cellules de mélanome B16 ont été ensemencées dans une plaque à 96 puits et incubées dans un milieu de culture pendant 24 heures.
Le milieu a ensuite été remplacé par du milieu de culture, en présence de NDP-MSH à 0,1 µM, contenant ou non : - le solvant témoin (éthanol testé à 0,066 %), • le composé d'essai acide sterculique testé à 50, 100 ou 200 µM, • l'acide kojique de référence testé à 0,5 mM ou 3 mM, • la combinaison du composé testé acide sterculique (50, 100 ou 200 µM) et de l'acide kojique à 0,5 mM.
Les cellules ont été incubées pendant 72 heures. En parallèle, une condition de contrôle non stimulée a été réalisée.
À la fin du temps d'incubation, l'absorbance à 405 nm a été mesurée et la teneur totale en mélanine (extracellulaire et intracellulaire) a été calculée pour chaque échantillon à l'aide d'une courbe standard de mélanine allant de 0,78 à 100 µg/ml.
Les valeurs de fond (interférences potentielles), mesurées dans les puits sans cellules, ont été soustraites aux valeurs calculées afin de considérer l'effet lié à la production de mélanine uniquement.
Les résultats ont été exprimés en pourcentage de mélanine par rapport au contrôle stimulé.

For series [2], the system named is cellules de mélanome murin B16. Briefly: Preliminary cytotoxicity test, WST-8 reduction assay. It counts as cell-based. The note with it: for % de cellules viables: 72 h incubation, WST-8, individual replicates. As for the experimental part:
Avant cet essai, un essai de cytotoxicité a été réalisé à l'aide d'un essai standard de réduction WST-8, afin de déterminer les concentrations à tester dans cette étude.
as §1
L'erreur standard de la moyenne (sem) est une mesure de la distance probable entre la moyenne de l'échantillon et la moyenne réelle de la population. Elle est calculée en divisant l'écart-type par la racine carrée de la taille de l'échantillon. Pourcentage deviabilité: viabilité(%) = (ODéchantillon/ODcontrôle) × 100 [formula] [formula]
(Formazan colour is commonly taken as a measure of viable cells.)

Another series has as its system cellules B16. Briefly: Total protein quantity (DC Protein Assay) in B16 cells of the melanin test. The format is cell-based, murin. To be noted: 200 µM; concluded from protein content. As for the experimental part: La quantité de protéines totales contenues dans les cellules et les surnageants de chaque réplicat a été mesurée à l'aide du kit DC Protein Assay contre une gamme de BSA avec un lecteur de microplaques à 750 nm (VERSAmax, Molecular Devices).
Kit : DC Protein Assay de BIO-RAD ref 500-0116.
Limite de détection basse : 0,2 mg/ml Limite de détection haute : 2 mg/ml Pour chaque condition de test, la quantité de mélanine a été normalisée par rapport à la quantité de protéines totales.

As for `O=c1cc(CO)occ1O` [acide kojique, reference compound], the inhibition relative in series [1] (0,5 mM, melanin synthesis in NDP-MSH-stimulated B16 cells) amounted to 65%; in series [1] (3 mM, inhibition of the NDP-MSH effect on melanin synthesis), 89%. The “Teneur en mélanine” value was 31,36483% and 49,33155% and 42,04703% in series [1] (KA 0,5 mM, listed as KA); 17,4540% and 20,7219% and 19,5020% in series [1] (KA 3 mM, listed as KA).

`CCCCCCCCC1=C(CCCCCCCC(=O)O)C1` [acide sterculique, 8-(2-octyl-cyclopropen-1-yl)-octanoic acid]: the “% de cellules viables” value in series [2] (AcSter 12 µM) is 112,1381% and 146,2746% and 110,4588%; in series [2] (AcSter 37 µM), 82,74032% and 102,0043% and 72,79147%; in series [2] (AcSter 111 µM) it was 112,2056% and 119,9363% and 106,0771%; in series [2] (AcSter 333 µM), 26,41552% and 44,06769% and 52,32917%; in series [2] (AcSter 1000 µM), 1,061339% and 1,910951% and 2,113628%; in series [2] (AcSter 1,5 µM) it was 133,9982% and 119,6442% and 122,5711%. The “effet sur la viabilité” value in series [2] (up to 111 µM, B16 cells, WST-8 (Fig 1)) is listed as “n'a pas eu d'effet sur la viabilité”. In addition, the “effet sur la synthèse de mélanine” value in series [1] (50 µM, NDP-MSH-stimulated B16 cells) is given as “n'a eu aucun effet”. The compound also gave an inhibition relative in series [1] (100 µM and 200 µM, strong, concentration-dependent inhibition of melanin synthesis) of at most 93%. Besides, the “inhibition de la teneur en mélanine” value in series [1] (100 µM, B16 cells (Fig 2)) was “inhibition marquée”; in series [1] (200 µM, B16 cells (Fig 2)), “inhibition marquée”. Further, the “efficacy on melanin content compared with acide kojique à 3mM” value in series [1] (200 µM, B16 cells (Fig 2)) is on record as “aussi efficace que l'acide kojique à 3mM”. Also, the “Teneur en mélanine” value is 103,1496% and 125,1337% and 106,9156% in series [1] (AS 50 µM, listed as AS); 57,21785% and 56,01605% and 61,96404% in series [1] (AS 100 µM, listed as AS); 13,64829% and 13,90374% and 21,16183% in series [1] (AS 200 µM, listed as AS). Moreover, the viabilité des cellules entry in the series on cellules B16 is reported as “n'inhibe pas la viabilité des cellules”.
